Test results as given in patent US12497610B2, “Functional genomics using CRISPR-CAS systems for saturating mutagenesis of non-coding elements, compositions, methods, libraries and applications thereof” (THE BROAD INSTITUTE, INC., priority 2015, dated 2025).

System: human BCL11A erythroid enhancer
Assay: Tiled pooled CRISPR-Cas9 screen for in situ functional mapping of the human BCL11A erythroid enhancer (HbF-high/HbF-low sort, sgRNA deep sequencing)
Format: cell-based
Settings: for Enrichment Score: HbF enrichment, human library NGG and NGG RC sgRNAs filtered for enrichment score >0.259; for Dropout Score: human library sgRNAs that produced HbF enrichment over 0.259
Description: Every 20-mer sequence upstream of an NGG or NAG PAM sequence on the sense or anti-sense strand was identified for both the human and mouse orthologous +55, +58, and +62 DNase hypersensitive site (DHS) as well as BCL11A/BCL11a exon 2. Relative to the human hg 19 reference genome, a reference was used with the following substitutions to approximate a common low-HbF associated haplotype: rs1427407-G, rs1896293-T, rs6706648-T, rs6738440-G, rs7606173-C. Each of the sgRNA oligos were synthesized as previously described (37,41,64) and cloned using a Gibson Assembly master mix (New England Biolabs) into lentiGuide-Puro (Addgene plasmid ID 52963) BsmBI digested, PCR purified, and dephosphorylated. Gibson Assembly products were transformed to electrocompetent E. cloni cells (Lucigen). Sufficient colonies were isolated to ensure 90X library coverage for both human and mouse libraries. Plasmid libraries were deep sequenced (described below) to confirm representation.
Tiled Pooled CRISPR-Cas9 Screen for In Situ Functional Mapping the Human BCL11A Erythroid Enhancer.
HUDEP clone 2 (HUDEP-2) was utilized as previously described by from Nakamura and colleagues (49). HUDEP-2 cells were expanded in StemSpan SFEM (Stem Cell Technologies) supplemented with 10^−6 M dexamethasone (Sigma), 100 ng/mL human stem cell factor (SCF) (R&D), 3 IU/mL erythropoietin (Amgen), 1% L-glutamine (Life Technologies), and 2% penicillin/streptomycin (Life Technologies). 1 μg/mL doxycycline (Sigma) was included in the culture to induce expression of the human papilloma virus type 16 E6/E7 genes (49). HUDEP-2 cells were differentiated in Iscove's Modified Dulbecco's Medium (IMDM) supplemented with 330 μg/mL halo-transferrin (Sigma), 10 μg/mL recombinant human insulin (Sigma), 2 IU/mL heparin (Sigma), 5% human solvent detergent pooled plasma AB (Rhode Island Blood Center), 3 IU/mL erythropoietin (Amgen), 100 ng/mL human stem cell factor (SCF) (R&D), 1 μg/mL doxycycline (Sigma), 1% L-glutamine (Life Technologies), and 2% penicillin/streptomycin (Life Technologies).
HUDEP-2 cells with stable Cas9 expression were transduced at low multiplicity with the human sgRNA library lentivirus pool while in expansion medium. […] Cell numbers were maintained throughout the experiment at levels adequate to exceed 1000× representation of the library. 10 μg/mL blasticidin (Sigma) and 1 μg/mL puromycin (Sigma) were added 24 hours after transduction to select for lentiviral library integrants in cells with Cas9. Cells were cultured in expansion media for one week followed by differentiation media for an additional week.
Intracellular staining was performed by fixing cells with 0.05% glutaraldehyde (grade II) (Sigma) for 10 minutes at room temperature. Cells were centrifuged for 5 minutes at 350 g and then resuspended in 0.1% Triton-X100 (Life Technologies) for 5 minutes at room temperature for permeabilization. Triton X-100 was diluted with phosphate buffered saline (PBS) and then centrifuged at 350 g for 15 minutes. Cells were stained with anti-human antibodies for HbF (clone HbF-1 with FITC or APC conjugation; Life Technologies) and B-hemoglobin antibody (clone 37-8 with PerCP-Cy5 or PE conjugation; Santa Cruz) for 20 minutes in the dark. Cells were washed to remove unbound antibody prior to FACS analysis. 0.2 μg HbF and 2 μg of HbA CB-hemoglobin) antibodies were used per 5 million cells. Control cells exposed to a nontargeting sgRNA sample and BCL11A exon 2 were used as negative and positive controls respectively to establish flow cytometry conditions. Populations of cells with the top and bottom 10% of expression of HbF were sorted by FACS.
After sorting the HbF-high and HbF-low pools, library preparation and deep sequencing was performed as previously described (37). Briefly, genomic DNA was extracted using the Qiagen Blood and Tissue kit. […]

| Substance | Enrichment Score | Dropout Score |
| --- | --- | --- |
| BCL_01626_H_D55 (guide TTTGGCCTCTGATTAGGGTGNGGRC; listed as DNA, chemistry not given here) | 1.336 | −0.2724 |
| BCL_01794_H_D62 (guide CAGGCATGTATTACCATGCCNGGRC; listed as DNA, chemistry not given here) | 0.2801 | −1.011 |
| BCL_01621_H_D58 (guide CACAGGCTCCAGGAAGGGTTNGGRC; listed as DNA, chemistry not given here) | 2.319 | −0.6005 |
| BCL_01625_H_D58 (guide GTTTGGCCTCTGATTAGGGTNGGRC; listed as DNA, chemistry not given here) | 0.3718 | −0.9451 |
| BCL_02003_H_exon2 (guide AAATAAGAATGTCCCCCAATNGGRC; listed as DNA, chemistry not given here) | 1.085 | −0.09695 |
| BCL_01788_H_D62 (guide GAGATTTACTCTTGTTGCCCNGGRC; listed as DNA, chemistry not given here) | 1.29 | −5.463 |
| BCL_01629_H_D58 (guide TCTGATTAGGGTGGGGGCGTNGGRC; listed as DNA, chemistry not given here) | 1.104 | 0.1807 |
| BCL_00062_H_D55 (guide AGCAGCCCTGGGCACAGAAGNGG; listed as DNA, chemistry not given here) | 0.3251 | −0.6401 |
| BCL_01634_H_D58 (guide TGGGTGGGGTAGAAGAGGACNGGRC; listed as DNA, chemistry not given here) | 0.4147 | −1.078 |
| BCL_02008_H_exon2 (guide AGGAGGTCATGATCCCCTTCNGGRC; listed as DNA, chemistry not given here) | 0.3495 | −0.4482 |
| BCL_00130_H_D58 (guide GGAGTATGGGGAGAGAAGAGNGG; listed as DNA, chemistry not given here) | 0.3752 | −2.212 |
| BCL_01993_H_exon2 (guide ACCTGGATGCCAACCTCCACNGGRC; listed as DNA, chemistry not given here) | 1.974 | −1.736 |
| BCL_02005_H_exon2 (guide GTTCATCTGGCACTGCCCACNGGRC; listed as DNA, chemistry not given here) | 3.202 | −1.837 |
| BCL_01624_H_D58 (guide GGTTTGGCCTCTGATTAGGGNGGRC; listed as DNA, chemistry not given here) | 1.472 | −0.7713 |
| BCL_01450_H_D55 (guide TGCTTGGTCGGCACTGATAGNGGRC; listed as DNA, chemistry not given here) | 1.578 | −0.3195 |
| BCL_01443_H_D55 (guide GGCACACCCTGTGATCTTGTNGGRC; listed as DNA, chemistry not given here) | 0.4181 | 0.2579 |
| BCL_00183_H_D58 (guide AAGAGGCCCCCCTGGGCAAANGG; listed as DNA, chemistry not given here) | 0.7853 | −0.5913 |
| BCL_01829_H_D62 (guide TGTGGGGTGGCTGTTTAAAGNGGRC; listed as DNA, chemistry not given here) | 0.496 | −0.1469 |
| BCL_01620_H_D58 (guide TTTATCACAGGCTCCAGGAANGGRC; listed as DNA, chemistry not given here) | 1.38 | −0.9481 |
| BCL_00249_H_exon2 (guide TGAACCAGACCACGGCCCGTNGG; listed as DNA, chemistry not given here) | 1.175 | −0.8221 |
